Reference: patent US4866196A, “Phenoxyacetic acid derivatives and preparation thereof” (Tanabe Seiyaku Co., Ltd., priority 1986, dated 1989)
Converted amounts (≈) assume the structure as drawn.

What was measured:
[1] = test system: collagen-induced platelet aggregation; assay: Effect on collagen-induced platelet aggregation (in vitro); format: cell-based, human; details: for IC50: 2 min, human platelet-rich plasma, 4×10^5 cells/mm^3, 2 minutes at 37° C., Born's method, read-out: IC50, collagen-induced platelet aggregation-inhibiting activity
Method: Nine volumes of blood collected from a healthy human were mixed with one volume of 3.13% (w/v) trisodium citrate solution, and the mixture was centrifuged to give platelet-rich plasma ("PRP") as the supernatant. The bottom layer was further centrifuged to give platelet-poor plasma ("PPP") as the supernatant. PRP was diluted with PPP so that the platelet count was about 4×10^5 cells/mm^3. 25 μl of a test compound solution containing an equimolar amount of sodium bicarbonate was added to 200 μl of said diluted PRP. After the mixture was stirred for 2 minutes at 37° C., a collagen solution [25-29 μg/ml solution: Biochim. Biophys. Acta, 186, 254 (1969)] was added thereto to induce platelet aggregation. The degree of platelet aggregation was examined by Born's method (Nature, 194, 927 (1962)), and the platelet aggregation-inhibiting activity of the test compound was estimated. The platlet aggregation-inhibiting activity of the test compound was expressed as IC50, i.e., the concentration of the test compound required to induce 50% inhibition of collagen-induced platelet aggregation.

[2] = test system: arachidonic acid-induced pulmonary embolism; assay: Effect on arachidonic acid-induced pulmonary embolism (in vivo); set-up: species or system ddy-male mice; details: Mus musculus; oral, 3 hours before arachidonic acid; dose required to shorten the recovery time by at least 15% vs control; read-out: Minimum Effective Dose, inhibiting effect on arachidonic acid-induced pulmonary embolism
Method: A test compound (suspended or dissolved in an aqueous sodium bicarbonate and 0.25% carboxymethylcellulose solution) was orally administered to ddy-male mice (5 weeks old, 10 mice per group) fasted overnight. Three hours later, arachidonic acid (125 mg/2.5 ml of 1% NaHCO3 solution+7.5 ml of 0.9% aqueous sodium chloride/kg) was injected to the tail vein of mice to induce pulmonary embolism, and the recovery time(minutes) of locomotive activity of the mice (i.e., the duration from the injection of arachidonic acid to the time the mice recovered from respiratory distress and began to walk) was compared with that of a control group of mice to which an aqueous 0.25% CMC solution was administered instead of the test compound solution. The inhibiting effect of each test compound on arachidonic acid-induced pulmonary embolism was estimated in terms of a minimum effective dose, i.e., the dose required to shorten the recovery time by at least 15% as compared with the control group.

[3] = test system: bleeding time; assay: Effect on bleeding time (in vivo); set-up: species or system ddy-male mice; details: Mus musculus; oral, 3 hours before tail cut; dose required to induce at least 50% prolongation of bleeding time vs control; read-out: minimum effective dose, prolonging effect on the bleeding time
Method: A test compound (suspended or dissolved in an aqueous 0.25% carboxymethylcellulose solution) was orally administered to ddy-male mice (5 weeks old, 10 mice per group) fasted overnight. Three hours later, the tip (ca. 2 mm) of the tail was cut off under ether anesthesia, and said tail was immersed in physiological saline (37° C.) immediately. The bleeding time (seconds) of the medicated group of mice was compared with that of a control group of mice to which an aqueous 0.25% CMC solution was administered instead of the test compound solution. The prolonging effect of each test compound on the bleeding time was estimated in terms of a minimum effective dose, i.e., the dose required to induce at least 50% prolongation of the bleeding time as compared with that of the control group.

SMILES | IC50 [1] [µg/mL] | platelet aggregation-inhibiting activity relative to 4-(2-benzenesulfonylaminoethyl)phenoxyacetic acid ([1]; in vitro, times as strong as known compound of JP 35910/1982) | minimal effective dose [2] [mg/kg] | minimal effective dose [3] [mg/kg]
CC(CNS(=O)(=O)c1ccc(Cl)cc1)c1ccc(OCC(=O)O)cc1 (racemic) [Compound No. 2, (±)4-[2(4-chlorophenyl)sulfonylamino-1-methylethyl]phenoxyacetic acid] | 0.5 (≈ 1.3 µM) | about 4 times | 0.3 | 10
CC(CNS(=O)(=O)c1ccccc1)c1ccc(OCC(=O)O)c(F)c1 (racemic) [Compound No. 4, (±)4-(2-benzenesulfonylamino-1-methylethyl)-2-fluorophenoxyacetic acid] |  |  | 0.1 | 
CC(CNS(=O)(=O)c1ccc(Cl)cc1)c1ccc(OCC(=O)O)c(F)c1 (racemic) [Compound No. 5, (±)4-(2-(4-chlorophenyl)sulfonylamino-1-methylethyl)-2-fluorophenoxyactic acid] |  |  | 0.03 | 
CC(Cc1ccc(OCC(=O)O)cc1)NS(=O)(=O)c1ccc(Cl)cc1 (racemic) [Compound No. 1, (±)4-[2(4-chlorophenyl)sulfonylaminopropyl]phenoxyacetic acid] | 0.7 (≈ 1.82 µM) |  | 1 | 3

Now from value to compound, other results behind:

IC50 [1] [µg/mL] | SMILES | platelet aggregation-inhibiting activity relative to 4-(2-benzenesulfonylaminoethyl)phenoxyacetic acid ([1]; in vitro, times as strong as known compound of JP 35910/1982) | minimal effective dose [2] [mg/kg] | minimal effective dose [3] [mg/kg]
0.5 (≈ 1.17 µM) | CC(CNS(=O)(=O)c1ccc(Br)cc1)c1ccc(OCC(=O)O)cc1 (racemic) [Compound No. 3, (±)4-[2(4-bromophenyl)sulfonylamino-1-methylethyl]phenoxyacetic acid] |  | 0.1 | 10
2 (≈ 5.96 µM) | O=C(O)COc1ccc(CCNS(=O)(=O)c2ccccc2)cc1 [Known Compound, 4-(2-benzenesulfonylaminoethyl)phenoxyacetic acid, reference compound] |  | 30 | 30
